# Columns and labels:
# A549 cells [1] = assay type: cell-based
# ceramide kinase = assay: Ceramide kinase assay on lysates of treated or transfected A549 cells; assay type: cell-based, human; details: 26 hours after transfection
# Experimental: FIGS. 5A-5C. IL-1β and calcium ionophore increase ceramide-1-phosphate production and ceramide kinase activity. FIGS. 5A and 5B. The effect of IL-1 and A23187 on C-1-P levels and AA liberation. A549 cells (2×10^5) were labeled overnight with 10 μCi/mL [^3H]-arachidonic acid (10 nM), washed, and then treated with either 2.5 ng/mL of IL-1β (FIG. 5A) or 1 μg/mL of A23187 (FIG. 5B) for the indicated times. Two hours prior to Bligh-Dyer extraction, cells were chased with 20 μM of D-e-C6 NBD-ceramide (Matreya). At the appropriate times, media was taken for AA analysis, and lipids from the cells were extracted by the Bligh-Dyer method followed by analysis of NBD-C-1-P formation. Data are presented as % control of C-1-P levels (J) and AA release (B). Data are representative of three separate determinations on 2 separate occasions. FIG. 5C. IL-1β and calcium ionophore increase ceramide kinase activity. A549 cells (5×10^5) were treated with either 2.5 ng/mL of IL-1β for 3.5 hours or 1 μg/mL of A23187 for 5 minutes. Cells were then washed, lysed in assay buffer, and assayed for ceramide kinase activity. Data is presented as % control of ceramide kinase activity (Arbitrary densitometry units of fluorescent NBD-C-1-P produced/min/mg of total cellular protein). Data are representative of three separate determinations on 2 separate occasions.
# FIGS. 6A-6B. Ceramide kinase RNAi downregulates endogenous ceramide kinase activity and mRNA levels. FIG. 6A. The effect of ceramide kinase RNAi on endogenous ceramide kinase activity. […] Following the same procedure as outlined in FIG. 6A, total RNA was extracted and analyzed via logarithmic reverse-transcriptase polymerase chain reaction for human ceramide kinase and 18s ribosomal RNA. […]
# Ceramide Kinase Assay: Ceramide kinase activity was measured as described previously with slight modifications (Bajjalieh, S., and Batchelor, R. (2001) Methods Enzymol. 311, 207-215). […] Following Bligh-Dyer extraction, lipids were separated by thin layer chromatography, and NBD-C-1-P was visualized/quantified by fluorescent phosphorimaging.
# A549 cells [2] = assay: Quantification of prostaglandin E2 synthesis in A549 cells (EIA); assay type: cell-based; details: compared with inhibition of AA release
# Experimental: Cell Culture: A549 lung adenocarcinoma cells (epithelial-derived) were grown in low glucose DMEM (Invitrogen) supplemented with L-glutamine, 10% (v/v) fetal bovine serum (Invitrogen), 200 U/ml of penicillin G sodium, and 200 μg/ml of streptomycin sulfate. Cells were maintained under 80% confluency and standard incubator conditions (humidified atmosphere, 95% air, 5% CO2, 370 C). For treatment, cells were incubated for 2 hours in low glucose DMEM (Invitrogen) supplemented with L-glutamine, 2% (v/v) fetal bovine serum (Invitrogen), 200 U/ml of penicillin G sodium, and 200 μg/ml of streptomycin sulfate prior to the addition of agonist.
# Quantification of prostaglandin E2 and thromboxane B2 synthesis: For measurement of PGE2 and TXB2 levels, aliquots of media were taken at indicated time points and assayed according to manufacturer's instructions using the prostaglandin E2 and thromboxane B2 monoclonal EIA Kit from Cayman Chemical. Briefly, media containing PGE2 or TXB2 competes with PGE2 or TXB2 acetylcholinesterase conjugate for a limited amount of monoclonal antibody. The antibody-PGE2 or -TXB2 conjugate binds to a goat-anti-mouse antibody previously attached to the 96-well plate. The plate is washed to remove unbound reagents and then the substrate for acetylcholinesterase is provided. […] Results were controlled for equivalent number of cells quantified by MTT assay. […]
substance,measurement,setting,value
"ceramide kinase RNAi: 21-nucleotide duplex, human ceramide kinase RNAi starting 142 nucleotides from start codon (SEQ ID NO: 3 and 4) (chain 1 UGCCUGCUCUGUGCCUGUATT; chain 2 UACAGGCACAGAGCAGGCATT; chemistry not given here)",effects on cell number,A549 cells [1],without effects
same,decrease of endogenous ceramide kinase activity,ceramide kinase,67%
same,inhibition of PGE2 synthesis in response to IL-1β and A23187,A549 cells [2],to the same extent
